# Tests used:
# human oxytocin receptor = target: T1, human oxytocin receptor (Homo sapiens, UniProt P30559); experiment: Oxytocin binding in CHO cell membranes expressing human oxytocin receptors ([3H]oxytocin); conditions: 100 nM, values without parentheses, read-out: OT % inhibition @ 100 nM
# T1 construct: host or cells: CHO cells, stably transfected (pcDNA3.1 vector); membranes
# T1 sequence (P30559 1-389): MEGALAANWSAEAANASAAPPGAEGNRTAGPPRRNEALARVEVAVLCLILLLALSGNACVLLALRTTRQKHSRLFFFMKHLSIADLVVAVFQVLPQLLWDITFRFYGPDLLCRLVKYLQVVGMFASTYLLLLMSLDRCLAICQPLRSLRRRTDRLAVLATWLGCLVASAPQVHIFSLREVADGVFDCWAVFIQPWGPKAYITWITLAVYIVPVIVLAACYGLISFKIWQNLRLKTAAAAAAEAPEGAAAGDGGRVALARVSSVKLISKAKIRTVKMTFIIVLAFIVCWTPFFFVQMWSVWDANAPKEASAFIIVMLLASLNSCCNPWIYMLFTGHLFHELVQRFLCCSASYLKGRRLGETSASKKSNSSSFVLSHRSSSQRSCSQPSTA
# Text: Oxytocin Binding in Chinese Hamster Ovary Cell Membranes Expressing Human Oxytocin Receptors
# Chinese Hamster Ovary (CHO) cells stably transfected with the human oxytocin (cf. Tanizawa et al., U.S. Pat. No. 5,466,584 (1995) to Rohto Pharmaceutical Co. Ltd., Osaka, Japan) were obtained from M. Thibonnier, Case Western Reserve University School of Medicine, Cleveland, Ohio. A. Passaging and Amplification of Cells: CHO cells transfected with the human oxytocin receptors obtained from M. Thibonnier (pcDNA3.1 vector) are allowed to grow to confluency (approx. >90%) in T-150 flasks under sterile conditions, in a cell culture medium of F-12 Nutrient Mixture (HAM) with L-glutamine (Gibco Cat. #11765-054) containing 15 mM HEPES (Gibco Cat. #15630-080), 1% antibiotic/antimycotic (add 5 mL 100×, Gibco Cat. #15240-062 per 500 mL F-12), 400 μg/mL of Geneticin (add 4 mL of 50 mg/mL per 500 mL F-12) and 10% Fetal Bovine Serum (Qualified, heat inactivated, Gibco Cat. #16140-063). The medium is removed by aspiration and the cells are washed with 10 mL of Hank's Balanced Salt solution (Gibco Cat. #14175-095). The salt solution is removed by aspiration and the cells trypsinized with 5 mL of trypsin-EDTA (0.05% trypsin, 0.53 mM EDTA-4Na, Gibco Cat. #25300-070) for 1 min. The trypsin is removed by aspiration and the cells dislodged by tapping. Cell Culture medium (e.g. 30 mL for 1:30 split) is immediately added and mixed well to inactivate trypsin. 1 mL of detached cells is added to new culture flasks containing fresh Cell Culture medium (e.g. into 25 mL per T-150 flask), and mixed gently. The cells are incubated at 37° C. in 5% CO2. The medium is changed at 3 to 4 days interval (or as appropriate). The cells grow to confluency (approx. >75%–95%) within 7–8 days. All steps are done under sterile conditions. B. Membrane Preparation: The cells are washed twice gently with Hank's Balanced Salt solution (e.g., use 10 mL per T-150 flask). The excess is removed and the cells bathed for 15–30 min. in an enzyme-free Cell Dissociation Buffer (e.g., use 8 mL Hank's Based, Gibco Cat. #13150-016 per T-150 flask) until cells are loosened. The contents are transferred to centrifuge tubes (50 mL size) kept in ice bath. All subsequent steps are done at 4° C. The tubes are centrifuged at 300×g for 15 min (1380 rpm on SORVAL, Model RT6000D, using rotor for 50 mL tubes). The supernatant is discarded and the cells suspended in homogenizing buffer (10 mM Tris-HCl containing 0.25 M sucrose and 1 mM EDTA, pH 7.4) ensuring that the volume of the buffer is about ten times the volume of the cell pellet. The cells are pooled into a centrifuge tube (50 mL) and homogenized with Polytron at setting 6 for 10 sec. The homogenate is transferred into a Potter-Elvjehm homogenizer and homogenized with 3 strokes. The homogenate is centrifuged at 1500×g for 10 min at 4° C. (3100 rpm using SORVAL, model RT6000D, using rotor for 50 mL tubes). The pellet. is discarded. The supernatant is centrifuged at 100,000×g for 60 min. at 4° C. (Beckman L8-80M ultracentrifuge; spin at 37,500 rpm with rotor type 70 Ti for 50 mL tubes; 38,000 rpm with type 80Ti for 15 mL tubes; or 35,800 rpm with rotor type 45Ti). The supernantant is discarded and the pellet suspended in 3 to 4 mL of Tris buffer (50 mM TRIS-HCl, pH 7.4). The protein content is estimated by the Bradford or Lowry method. The volume of the membrane suspension is adjusted with the membrane buffer (50 mM Tris-HCl containing 0.1% BSA and 0.1 mM PMSF) to give 3.0 mg/mL (or as appropriate) of protein. The membranes are aliquoted and stored at −70° C. C. Radioligand Binding Assay: In wells of a 96-well format microliter plate, is added 90, 110 or 130 μL (to make up a final volume of 200 μL) of assay buffer containing 50 mM of Tris-HCl (pH 7.4), […], 1 mg % aprotinin, 1 mg % leupeptin, 2 mg % 1,10-phenanthroline, 10 mg % trypsin inhibitor, and 0.1 mM PMSF. The inhibitors are added on the day of the experiment. […]
Structure (SMILES),melting point,inhibition at 0.1 µM (human oxytocin receptor)
"CC1=C(c2ccc(C(=O)N3Cc4cccn4Cc4ccccc43)cc2C)C(C)CCC1 (stereo not shown) [Example 33, (10,11-Dihydro-5H-pyrrolo[2,1-c][1,4]benzodiazepin-10-yl)-[4-(2,6-dimethyl-cyclohex-1-en-1-yl)-3-methyl-phenyl]-methanone]",133 to 135 °C,56%
"Cc1cc(C(=O)N2Cc3cccn3Cc3ccccc32)ccc1C1=CCCCC1C(C)(C)C (stereo not shown) [Example 34, (10,11-Dihydro-5H-pyrrolo[2,1-c][1,4]benzodiazepin-10-yl)-[4-(6-tert-butyl-cyclohex-1-en-1-yl)-3-methyl-phenyl]-methanone]",127 to 129 °C,20%
"Cc1cc(C(=O)N2Cc3cccn3Cc3ccccc32)ccc1C1=CCC2CCC1C2 (stereo not shown) [Example 35, (10,11-Dihydro-5H-pyrrolo[2,1-c][1,4]benzodiazepin-10-yl)-(4-bicyclo[3.2.1]oct-2-en-2-yl-3-methyl-phenyl)-methanone]",168 to 169 °C,48%
"Cc1cc(C(=O)N2Cc3cccn3Cc3ccccc32)ccc1C1=CCC2CC1C2(C)C (stereo not shown) [Example 36, (10,11-Dihydro-5H-pyrrolo[2,1-c][1,4]benzodiazepin-10-yl)-[4-(6,6-dimethyl-bicyclo[3.1.1]hept-2-en-2-yl)-3-methyl-phenyl]-methanone]",187 °C,14%
"Cc1cc(C(=O)N2Cc3cccn3Cc3ccccc32)ccc1C1=CC(C)(C)CC(C)(C)C1 [Example 37, (10,11-Dihydro-5H-pyrrolo[2,1-c][1,4]benzodiazepin-10-yl)-[3-methyl-4-(3,3,5,5-tetramethyl-cyclohex-1-en-1-yl)-phenyl]-methanone]",158 °C,30%
"COc1cccc(C2=C(c3ccc(C(=O)N4Cc5cccn5Cc5ccccc54)cc3C)CCCC2)c1 [Example 38, (10,11-Dihydro-5H-pyrrolo[2,1-c][1,4]benzodiazepin-10-yl)-{4-[2-(3-methoxy-phenyl)-cyclohex-1-en-1-yl]-3-methyl-phenyl}-methanone]",91 to 94 °C,16%
"Cc1cc(C(=O)N2Cc3cccn3Cc3ccccc32)ccc1C1=CC(=O)CCC1 [Example 39, 3-[4-(10,11-Dihydro-5H-pyrrolo[2,1-c][1,4]benzodiazepine-10-carbonyl)-2-methyl-phenyl]-cyclohex-2-en-1-one]",176 to 177 °C,76%
"CO[C@@H]1CCCC(c2ccc(C(=O)N3Cc4cccn4Cc4ccccc43)cc2C)=C1C [Example 44, 10-{4-[(3R)-3-Methoxy-2-methylcyclohex-1-en-1-yl]-3-methylbenzoyl}-10,11-dihydro-5H-pyrrolo[2,1-c][1,4]benzodiazepine]",127 to 128 °C,96%

# — patent US7022699B2, “Cyclohexenyl phenyl diazepines vasopressin and oxytocin receptor modulators” (Wyeth, priority 2001, dated 2006)
